# Counter-ions that a name gives are not always drawn.
# What was measured:
# [1] = system: human colon carcinoma cell line HCT 116; assay: Anti-proliferative activity, Alamar Blue assay; assay type: cell-based; conditions: 72 hours compound incubation, read-out: IC50, inhibition of cell growth, HCT 116
# Summary of the method: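 Cells were allowed to recover for 16 h, then exposed to compounds or combinations for 72 h. Viability was measured by resazurin reduction after 6 h with 10% (v/v) Alamar Blue, read at 535 nm ex/590 […] em. In the non-proliferating format, cells were held at confluence for 96 h before the 72 h treatment.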
# CDK5/p35 = CDK5/p35 (Homo sapiens, UniProt Q00535); assay: CDK selectivity assay, CDK5/p35; assay type: biochemical
# Description: (specific activity approx 500 cpm/pmol, concentration as required).
# [2] = clinical studies; cited from earlier work
# PKG = conditions: data published in 2002; cited from earlier work
# PKA = conditions: data published in 2002; cited from earlier work
# OVCAR-3 tumour cells = conditions: concentrations of 50 and 100 microM; cited from earlier work
# PKC = conditions: data published in 2002; cited from earlier work
# symptomatic CLL patients = conditions: initial therapy; cited from earlier work
# Solubility of the salt = assay type: physicochemical
# [3] = Stability and hygroscopicity of the salt; assay type: physicochemical
# Description: The term ‘stable’ or ‘stability’ as used herein includes chemical stability and solid state (physical) stability. The term ‘chemical stability’ means that the compound can be stored in an isolated form, or in the form of a formulation in which it is provided in admixture with for example, pharmaceutically acceptable carriers, diluents or adjuvants as described herein, under normal storage conditions, with little or no chemical degradation or decomposition. ‘Solid-state stability’ means the compound can be stored in an isolated solid form, or the form of a solid formulation in which it is provided in admixture with, for example, pharmaceutically acceptable carriers, diluents or adjuvants as described herein, under normal storage conditions, with little or no solid-state transformation (e.g. hydration, dehydration, solvatisation, desolvatisation, crystallisation, recrystallisation or solid-state phase transition).
# CDK5/p35, sequence (Q00535 whole entry, species assumed): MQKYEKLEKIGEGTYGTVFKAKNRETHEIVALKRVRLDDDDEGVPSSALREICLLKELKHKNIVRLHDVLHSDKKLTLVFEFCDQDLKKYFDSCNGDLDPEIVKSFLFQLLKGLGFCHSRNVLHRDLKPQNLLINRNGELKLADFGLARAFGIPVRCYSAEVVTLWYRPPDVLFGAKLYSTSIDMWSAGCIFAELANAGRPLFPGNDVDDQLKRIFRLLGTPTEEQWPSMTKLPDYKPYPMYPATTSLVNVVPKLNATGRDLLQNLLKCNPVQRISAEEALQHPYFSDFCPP
# CDK5/p35, sequence (Q15078 whole entry partner, species assumed): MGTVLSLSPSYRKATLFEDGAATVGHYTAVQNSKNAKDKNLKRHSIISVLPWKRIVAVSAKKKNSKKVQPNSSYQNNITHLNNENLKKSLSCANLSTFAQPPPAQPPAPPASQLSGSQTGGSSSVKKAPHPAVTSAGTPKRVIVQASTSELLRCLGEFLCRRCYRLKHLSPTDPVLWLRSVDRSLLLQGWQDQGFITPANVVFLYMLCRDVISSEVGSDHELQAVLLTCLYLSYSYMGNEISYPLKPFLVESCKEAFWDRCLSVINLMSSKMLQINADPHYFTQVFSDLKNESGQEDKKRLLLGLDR
structure (smiles),measurement,setting,value
"O=C(Nc1ccc(F)cc1)c1n[nH]cc1NC(=O)c1c(F)cccc1F [Example 41, 4-(2,6-Difluoro-benzoylamino)-1H-pyrazole-3-carboxylic acid (4-fluoro-phenyl)-amide]",IC50,[1],< 20 µM
same,IC50,CDK5/p35,< 20 µM
"CCCCCCCCCCCCCCCCCCOP(=O)([O-])OC1CC[N+](C)(C)CC1 [KRX-0401, Perifosine]",Half-life,[2],~100 h
O=S(=O)(NCCNCC=C(c1ccccc1)c1ccccc1)c1cccc2cnccc12 [NL-71-101],IC50,PKG,36 µM
same,IC50,PKA,9 µM
same,Apoptosis in OVCAR-3 tumour cells,OVCAR-3 tumour cells,induced apoptosis
same,IC50,PKC,104 µM
Nc1nc(F)nc2c1ncn2[C@@H]1O[C@H](CO)[C@@H](O)[C@@H]1O [fludarabine],Duration of progression-free survival,symptomatic CLL patients,33 months
same,Rate of complete responses,symptomatic CLL patients,27%
"CS(=O)(=O)O.O=C(NC1CCNCC1)c1n[nH]cc1NC(=O)c1c(Cl)cccc1Cl [methanesulphonate salt, 4-(2,6-dichlorobenzoylamino)-1H-pyrazole-3-carboxylic acid piperidin-4-ylamide methanesulphonate]",Water solubility,Solubility of the salt,excellent
same,Hygroscopicity,[3],non-hygroscopicity
"O=C(NC1CCNCC1)c1n[nH]cc1NC(=O)c1c(Cl)cccc1Cl [methanesulphonic acid salt, 4-(2,6-dichloro-benzoylamino)-1H-pyrazole-3-carboxylic acid piperidin-4-ylamide]",solubility,"Solubility of the salt; pH 4.6, aqueous buffer, acetic acid/sodium acetate buffer, solution pH approximately 4.6",~35 mg/mL
